# According to patent publication US20140094366A1, “SYNERGISTIC WEED CONTROL FROM APPLICATIONS OF AMINOCYCLOPYRACHLOR AND FLUROXYPYR” (Dow AgroSciences LLC, priority 2012, published 2014):
# What was measured:
# Experiment in all cases: Field trial, post-emergence foliar weed control
# Format in all cases: in vivo
# [1] = system: buckhorn plantain (Plantago lanceolata, PLALA); conditions: 27 DAYS, 18 g ae/ha, alone
# Text: (§1) The (a) aminocyclopyrachloror an agriculturally acceptable salt or ester thereof is mixed with or applied in combination with (b) fluoroxypyr or an agriculturally acceptable salt or ester thereof in an amount sufficient to induce a synergistic herbicidal effect. […] As described in the Herbicide Handbook of the Weed Science Society of America, Ninth Edition, 2007, p. 429, “‘synergism’ [is] an interaction of two or more factors such that the effect when combined is greater than the predicted effect based on the response to each factor applied separately.” Synergistic in the herbicide context can mean that the use of (a) and (b) as defined above results in an increased weed control effect compared to the weed control effects that are possible with the use of (a) or (b) alone. In some embodiments, the damage or injury to the undesired vegetation caused by the compositions and methods disclosed herein is evaluated using a scale from 0% to 100%, when compared with the untreated control vegetation, wherein 0% indicates no damage to the undesired vegetation and 100% indicates complete destruction of the undesired vegetation. […] 22 (1967)
# (§2) Field trials were conducted with applications made to established grassland with naturally occurring weed populations, or applications were made to bare ground with naturally occurring weed populations. The target plants were treated with postemergence foliar applications after they had reached at least 3-4 leaves or at least 2-5 inches in height. All treatments were applied using a randomized complete block trial design, with 3-4 replications per treatment.
# (§3) Treatments consisted of aminocyclopyrachlor in acid form and fluoroxypyr-meptyl, each in water and applied alone or in combination. Spray solutions were prepared using an appropriate amount of dilution to form a 2 liter (L) aqueous spray solution with active ingredients in single and two way combinations. Formulated compounds were applied to the plant material with a backpack sprayer equipped with 8003 or Turbojet nozzles calibrated to deliver 187 liters per hectare (L/ha) to 400 L/ha at a spray height of 18-20 inches (43-50 centimeters (cm)) above average plant canopy or ground.
# (§4) The treated plants were shepherd's purse (Capsella bursa-pastoris, CAPBP), common fiddleneck (Amsinckia menziesii, AMSIN), wild oat (Avena fatua, AVEFA), cat's ear dandelion (Hypochaeris radicata, HRYRA), yellow star thistle (Centaurea solstitialis, CENSO), common guava (Psidium guajava, PSIGU), buckhorn plantain (Plantago lanceolata, PLALA), and calvary clover (Medicago arabica, MEDAB). The treated plots and control plots were rated blind at various intervals after application. Ratings were based on a scale of 0-100%, as discussed above, wherein 0% indicates no damage to the undesired vegetation and 100% indicates complete destruction of the undesired vegetation.
# (§5) Colby's equation was used to determine the herbicidal effects expected from the mixtures, as described above. The results were measured at 11 days, 17 days, 24 days, 27 days, 37 days, 70 days, 76 days, and 88 days after the first application of the compositions. […] The herbicide tank mix combinations tested, application rates and ratios employed, plant species tested, and results are given below.
# [2] = system: calvary clover (Medicago arabica, MEDAB); conditions: 27 DAYS, alone
# Text: as §1, §2, §3, §4, §5
# [3] = system: cat's ear dandelion (Hypochaeris radicata, HRYRA); conditions: alone
# Text: as §1, §2, §3, §4, §5
# [4] = system: common fiddleneck (Amsinckia menziesii, AMSIN); conditions: alone; for Aminocyclopyrachlor Mean % weed control: 18 g ae/ha; for Fluroxypyr-meptyl Mean % weed control: 70 g ae/ha
# Text: as §1, §2, §3, §4, §5
# [5] = system: common guava (Psidium guajava, PSIGU); conditions: alone
# Text: as §1, §2, §3, §4, §5
# [6] = system: shepherd's purse (Capsella bursa-pastoris, CAPBP); conditions: alone
# Text: as §1, §2, §3, §4, §5
# [7] = system: wild oat (Avena fatua, AVEFA); conditions: 11 DAYS, alone
# Text: as §1, §2, §3, §4, §5
# [8] = system: yellow star thistle (Centaurea solstitialis, CENSO); conditions: 37 DAYS, alone
# Text: as §1, §2, §3, §4, §5
structure (smiles),measurement,setting,value
"Nc1nc(C2CC2)nc(C(=O)O)c1Cl [Aminocyclopyrachlor, 6-amino-5-chloro-2-cyclopropylpyrimidine-4-carboxylic acid]",Aminocyclopyrachlor Mean % weed control,[1],22.5%
same,Aminocyclopyrachlor Mean % weed control,[2]; 18 g ae/ha,27.5%
same,Aminocyclopyrachlor Mean % weed control,[2]; 35 g ae/ha,47.5%
same,Aminocyclopyrachlor Mean % weed control,"[3]; 11 DAYS, 35 g ae/ha",1.75%
same,Aminocyclopyrachlor Mean % weed control,"[3]; 37 DAYS, 18 g ae/ha",28.75%
same,Aminocyclopyrachlor Mean % weed control,"[3]; 70 DAYS, 18 g ae/ha",36.25%
same,Aminocyclopyrachlor Mean % weed control,[4]; 17 DAYS,0%
same,Aminocyclopyrachlor Mean % weed control,[4]; 24 DAYS,0%
same,Aminocyclopyrachlor Mean % weed control,"[5]; 76 DAYS, 50 g ae/ha",7.5%
same,Aminocyclopyrachlor Mean % weed control,"[5]; 76 DAYS, 150 g ae/ha",48.3%
same,Aminocyclopyrachlor Mean % weed control,"[5]; 88 DAYS, 50 g ae/ha",7.5%
same,Aminocyclopyrachlor Mean % weed control,"[5]; 88 DAYS, 150 g ae/ha",57.5%
same,Aminocyclopyrachlor Mean % weed control,"[6]; 17 DAYS, 18 g ae/ha",23.33%
same,Aminocyclopyrachlor Mean % weed control,"[6]; 17 DAYS, 35 g ae/ha",50%
same,Aminocyclopyrachlor Mean % weed control,"[6]; 24 DAYS, 35 g ae/ha",50%
same,Aminocyclopyrachlor Mean % weed control,[7]; 35 g ae/ha,0%
same,Aminocyclopyrachlor Mean % weed control,[8]; 18 g ae/ha,57.5%
CCCCCCC(C)OC(=O)COc1nc(F)c(Cl)c(N)c1Cl (stereo not drawn) [Fluroxypyr-meptyl],Fluroxypyr-meptyl Mean % weed control,[1],10%
same,Fluroxypyr-meptyl Mean % weed control,[2]; 18 g ae/ha,11.25%
same,Fluroxypyr-meptyl Mean % weed control,[2]; 35 g ae/ha,7.5%
same,Fluroxypyr-meptyl Mean % weed control,[2]; 70 g ae/ha,47.5%
same,Fluroxypyr-meptyl Mean % weed control,"[3]; 11 DAYS, 70 g ae/ha",0%
same,Fluroxypyr-meptyl Mean % weed control,"[3]; 37 DAYS, 18 g ae/ha",0.5%
same,Fluroxypyr-meptyl Mean % weed control,"[3]; 37 DAYS, 70 g ae/ha",3%
same,Fluroxypyr-meptyl Mean % weed control,"[3]; 70 DAYS, 70 g ae/ha",1.75%
same,Fluroxypyr-meptyl Mean % weed control,[4]; 17 DAYS,3.33%
same,Fluroxypyr-meptyl Mean % weed control,[4]; 24 DAYS,3.33%
same,Fluroxypyr-meptyl Mean % weed control,"[5]; 76 DAYS, 80 g ae/ha",4.8%
same,Fluroxypyr-meptyl Mean % weed control,"[5]; 76 DAYS, 240 g ae/ha",16.3%
same,Fluroxypyr-meptyl Mean % weed control,"[5]; 88 DAYS, 80 g ae/ha",4.8%
same,Fluroxypyr-meptyl Mean % weed control,"[5]; 88 DAYS, 240 g ae/ha",16.3%
same,Fluroxypyr-meptyl Mean % weed control,"[6]; 17 DAYS, 35 g ae/ha",6.67%
same,Fluroxypyr-meptyl Mean % weed control,"[6]; 17 DAYS, 70 g ae/ha",13.33%
same,Fluroxypyr-meptyl Mean % weed control,"[6]; 24 DAYS, 70 g ae/ha",8.33%
same,Fluroxypyr-meptyl Mean % weed control,[7]; 70 g ae/ha,1%
same,Fluroxypyr-meptyl Mean % weed control,[8]; 70 g ae/ha,22.5%
